Values quoted from earlier work as cited in patent US8648060B2, “Use of 3-alpha-androstanediol in combination with a 5-HT1a agonist, in the treatment of sexual dysfunction” (Emotional Brain B.V., priority 2006, dated 2014).

Settings: serum concentration; capsule

SMILES: CCCc1nn(C)c2c(=O)[nH]c(-c3cc(S(=O)(=O)N4CCN(C)CC4)ccc3OCC)nc12.O=C(O)CC(O)(CC(=O)O)C(=O)O [sildenafil, 1-[[3-(6,7-dihydro-1-methyl-7-oxo-3-propyl-1Hpyrazolo[4,3-d]pyrimidin-5-yl)-4-ethoxyphenyl]sulfonyl]-4-methylpiperazine citrate]
- Tmax of sildenafil: 0.5 to 2 h
- T½: 3.5 h
